Results: patent US20240016876A1, “COMPOSITION FOR HANGOVER RELIEF COMPRISING NONI FRUIT EXTRACT OR FRACTION THEREOF AND USE THEREOF” (Cosmax NBT, Inc., priority 2020, published 2024)

System: alcohol dehydrogenase (ADH)
Test: ADH activity enhancing efficacy (in vitro, Bergmeyer method)
Format: biochemical
Conditions: samples treated at 10 μM; control group (CTL) not treated = 100%; FIGS. 1 and 2
Method: The ADH activity was measured by referring to [Bergmeyer, H. U. 1974. Methods of enzymatic analysis. Academic Press, New York. pp. 28], and measurements were made according to the method presented herein. All samples were treated at 10 μM, and the ADH activity of each sample was expressed as relative activity (%) with respect to the control group, based on 100% of the activity of the control group (CTL) which was not treated with the sample.

Row | SMILES | ADH activity compared to the control group
1 | CC(=O)OCC1=C[C@@H]2OC(=O)C3=CO[C@@H](O[C@@H]4O[C@H](CO)[C@@H](O)[C@H](O)[C@H]4O)[C@H]1[C@@H]32 [asperuloside] | did not show an increase
2 | O=C(O)C1=CO[C@@H](O[C@@H]2O[C@H](CO)[C@@H](O)[C@H](O)[C@H]2O)[C@@H]2C(CO)=C[C@H](O)[C@H]12 [deacetylasperulosidic acid] | did not show an increase
3 | O=C(O)c1ccc(O)cc1 [4-hydroxybenzoic acid] | did not show an increase
4 | CC(=O)OCC1=C[C@H](O)[C@@H]2C(C(=O)O)=CO[C@@H](O[C@@H]3O[C@H](CO)[C@@H](O)[C@H](O)[C@H]3O)[C@H]12 [asperulosidic acid] | did not show an increase
5 | COc1ccc(C(=O)O)cc1 [p-anisic acid] | did not show an increase
6 | O=C(O)/C=C/c1ccc(O)c(O)c1 [caffeic acid] | did not show an increase
7 | O=C(O)c1cc(O)c(O)c(O)c1 [gallic acid] | did not show an increase
8 | COc1cc2ccc(=O)oc2cc1O [scopoletin] | did not show an increase
9 | O=C(/C=C/c1ccc(O)c(O)c1)O[C@@H]1C[C@](O)(C(=O)O)C[C@@H](O)[C@H]1O [chlorogenic acid] | did not show an increase
